Read-outs that look alike come from different tables or passages of the source.
How the values were obtained:
[1] = target: T1, mouse PPARγ (Mus musculus, UniProt P37238); test: Radioligand binding assay (SPA), GST-PPARγ-LBD; design: PPARγ (aa 174 to 476)
T1 sequence (P37238 204-505): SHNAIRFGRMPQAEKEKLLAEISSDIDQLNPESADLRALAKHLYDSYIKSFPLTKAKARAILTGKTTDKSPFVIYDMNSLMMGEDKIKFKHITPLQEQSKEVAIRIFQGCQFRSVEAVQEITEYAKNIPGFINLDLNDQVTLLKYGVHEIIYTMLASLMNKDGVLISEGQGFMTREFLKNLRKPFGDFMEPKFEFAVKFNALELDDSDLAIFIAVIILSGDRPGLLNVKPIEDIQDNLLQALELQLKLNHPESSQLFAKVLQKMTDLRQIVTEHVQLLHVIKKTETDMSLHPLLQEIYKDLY
Description: (§1) Full-length cDNA clones for human PPARα and mouse PPARγ were obtained by RT-PCR from human adipose and mouse liver cRNA, respectively, cloned into plasmid vectors and verified by DNA sequencing. […] To accomplish this, the portions of the cloned sequences encoding the LBDs were amplified from the full-length clones by PCR and then subcloned into the plasmid vectors. Final clones were verified by DNA sequence analysis.
(§2) Induction, expression, and purification of GST-LBD fusion proteins were performed in E. coli strain BL21(pLysS) cells by standard methods (Ref: Current Protocols in Molecular Biology, Wiley Press, edited by Ausubel et al.).
(§3) PPARγ receptor binding was assayed in TKE50 (50 mM Tris-HCl, pH 8, 50 mM KCl, 2 mM EDTA, 0.1 mg/ml fatty acid-free BSA and 10 mM DTT). For each 96 well reaction an 140 ng equivalent of GST-PPARγ-LBD fusion protein was bound to 10 ug SPA beads (PharmaciaAmersham) in a final volume of 50 ul by shaking. The resulting slurry was incubated for 1 h at RT and centrifuged for 2 min at 1300 g. The supernatant containing unbound protein was removed and the semidry pellet containig the recptor-coated beads was resolved in 50 ul of TKE. For radioligand binding e.g. 10000 dpm 2(S)-(2-benzoyl-phenylamino)-3-{4-[1,1-ditritio-2-(5-methyl-2-phenyl-oxazol-4-yl)-ethoxy]-phenyl}-propionic acid in 50 ul were added, the reaction incubated at RT for 1 h and scintillation proximity counting performed. All binding assays were performed in 96 well plates and the amount of bound ligand measured on a Packard TopCount using OptiPlates (Packard). Nonspecific binding was determined in the presence of 10^−4 M unlabelled compound. Dose response curves were done in triplicates within a range of concentration from 10^−10 M to 10^−4 M.

[2] = target: T2, human PPARα (Homo sapiens, UniProt Q07869); test: Luciferase transcriptional reporter gene assay, pFA-PPARα-LBD in BHK21 cells; assay type: cell-based
T2 construct: PPARγ (aa 174 to 476) and PPARα (aa 167 to 469); made in house; host or cells: E. coli BL21(pLysS)
T2 sequence (Q07869 167-468 limits assumed): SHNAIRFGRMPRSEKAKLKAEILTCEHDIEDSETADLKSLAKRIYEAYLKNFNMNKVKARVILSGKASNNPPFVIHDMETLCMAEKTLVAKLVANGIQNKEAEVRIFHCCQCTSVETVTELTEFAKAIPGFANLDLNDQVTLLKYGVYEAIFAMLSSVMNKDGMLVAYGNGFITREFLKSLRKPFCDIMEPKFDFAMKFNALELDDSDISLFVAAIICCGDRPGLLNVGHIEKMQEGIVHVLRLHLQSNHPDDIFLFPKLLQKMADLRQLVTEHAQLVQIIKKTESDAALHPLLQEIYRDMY
Experimental: as §1
(§4) Baby hamster kidney cells (BHK21 ATCC CCL10) were grown in DMEM medium containing 10% FBS at 37° C. in a […] atmosphere. Cells were seeded in 6 well plates at a density of 10^5 Cells/well and then transiently batch-transfected with either the pFA-PPARγ-LBD or pFA-PPARα-LBD expression plasmids plus a reporter plasmid and an expression plasmid encoding the secretable form of alkaline phosphatase (SEAP) as a normalization control. […] Six hours following transfection, the cells were harvested by trypsinization and seeded in 96 well plates at a density of 10^4 cells/well. After 24 hours to allow attachment of cells, the medium was removed and replaced with 100 ul of phenol red-free medium containing the test substances or control ligands (final DMSO concentration: 0.1%). Following incubation of the cells for 24 hours with substances, 50 ul of the supernatant was recovered and analyzed for SEAP activity (Roche Molecular Biochemicals). The remainder of the supernatant was discarded, 50 ul PBS was added per well followed by one volume of Luciferase Constant-Light Reagent (Roche Molecular Biochemicals) to lyse the cells and initiate the luciferase reaction. Luminescence for both SEAP and luciferase was measured in a Packard TopCount. Luciferase activity was normalized to the SEAP control and transcriptional activation in the presence of a test substance was expressed as fold-activation over cells incubated in the absence of the substance. EC50 values were calculated using the XLfit program (ID Business Solutions Ltd. UK).

[3] = target: T2, human PPARα; test: Radioligand binding assay, GST-PPARα-LBD
Description: as §1, §2
PPARα receptor binding was assayed in TKE10 (10 mM Tris-HCl, pH 8, 50 mM KCl, 2 mM EDTA, 0.1 mg/ml fatty acid free BSA and 10 mM DTT). For each 96 well 2.4 ug equivalent of GST-PPARα-LBD fusion protein and radioligand, e.g. 40000 dpm 2(S)-(2-benzoyl-phenylamino)-3-{4-[1,1-ditritio-2-(5-methyl-2-phenyl-oxazol-4-yl)-ethoxy]-phenyl}-propionic acid, were incubated in 100 ul volume at RT for 2 hrs. Bound ligand was removed from unbound ligand by solid phase separation using MultiScreen plates (Millipore) filled with 80 ul of SG25 according to the manufacturer's recommendations.
as §3

[4] = target: T1, mouse PPARγ; test: Luciferase transcriptional reporter gene assay, pFA-PPARγ-LBD in BHK21 cells; assay type: cell-based; design: PPARγ (aa 174 to 476) and PPARα (aa 167 to 469); expressed in transfected cells; host or cells: BHK21 (ATCC CCL10)
Experimental: as §1, §4

[5] = BHK21 cells transfected with pFA-PPARα-LBD, 24 hours incubation, read-out: PPARα EC50
[6] = GST-PPARα-LBD, tritiated radioligand, RT 2 hrs, read-out: PPARα IC50
[7] = GST-PPARγ-LBD on SPA beads, tritiated radioligand, RT 1 h, read-out: PPARγ IC50
[8] = BHK21 cells transfected with pFA-PPARγ-LBD, 24 hours incubation, read-out: PPARγ EC50

Row | IC50 [1] | EC50 [2, 5] | IC50 [3, 6] | EC50 [4] | IC50 [1, 7] | EC50 [2] | IC50 [3] | EC50 [4, 8] | PPARα EC50 ([2]; BHK21 cells transfected with pFA-PPARα-LBD, 24 hours incubation) | PPARα IC50 ([3]; GST-PPARα-LBD, tritiated radioligand, RT 2 hrs) | Compound
1 | – | – | – | – | 0.033 µM | 0.15 µM | 0.131 µM | 0.057 µM | – | – | CCO[C@@H](Cc1ccc(OCCCc2nc(-c3ccccc3)oc2C)cc1C)C(=O)O [Example 43, (S)-2-Ethoxy-3-{2-methyl-4-[3-(5-methyl-2-phenyl-oxazol-4-yl)-propoxy]-phenyl}-propionic acid]
2 | 0.031 µM | 0.186 µM | 0.073 µM | 0.174 µM | – | – | – | – | – | – | CCO[C@@H](Cc1ccc(OCc2nc(-c3ccc(OC(C)C)cc3)oc2C)cc1Cl)C(=O)O [Example 17, (S)-3-{2-Chloro-4-[2-(4-isopropoxy-phenyl)-5-methyl-oxazol-4-ylmethoxy]-phenyl}-2-ethoxy-propionic acid]
3 | 0.058 µM | 0.163 µM | 0.03 µM | 0.115 µM | – | – | – | – | – | – | CCO[C@@H](Cc1ccc(OCc2nc(-c3ccc(OC(C)C)cc3)oc2C)cc1C)C(=O)O [Example 2, (S)-2-Ethoxy-3-{4-[2-(4-isopropoxy-phenyl)-5-methyl-oxazol-4-ylmethoxy]-2-methyl-phenyl}-propionic acid]
4 | 0.506 µM | 0.057 µM | 0.087 µM | 0.087 µM | – | – | – | – | – | – | CCO[C@@H](Cc1ccc(OCc2nc(-c3ccccc3)oc2C)cc1C)C(=O)O [Example 3, (S)-2-Ethoxy-3-[2-methyl-4-(5-methyl-2-phenyl-oxazol-4-ylmethoxy)-phenyl]-propionic acid]

More lines, now with the values behind:

Row | Compound | IC50 [1] | EC50 [2, 5] | IC50 [3, 6] | EC50 [4] | IC50 [1, 7] | EC50 [2] | IC50 [3] | EC50 [4, 8] | PPARα EC50 ([2]; BHK21 cells transfected with pFA-PPARα-LBD, 24 hours incubation) | PPARα IC50 ([3]; GST-PPARα-LBD, tritiated radioligand, RT 2 hrs)
5 | CCO[C@@H](Cc1ccc(OCc2nc(-c3ccc(C(C)C)cc3)oc2C)cc1OC)C(=O)O [Example 25, (S)-2-Ethoxy-3-{4-[2-(4-isopropyl-phenyl)-5-methyl-oxazol-4-ylmethoxy]-2-methoxy-phenyl}-propionic acid] | 0.129 µM | 0.026 µM | 0.177 µM | 0.075 µM | – | – | – | – | – | –
6 | CO[C@@H](Cc1ccc(OCCc2nc(-c3ccccc3)oc2C)cc1O)C(=O)O [Example 23, (S)-3-{2-Hydroxy-4-[2-(5-methyl-2-phenyl-oxazol-4-yl)-ethoxy]-phenyl}-2-methoxy-propionic acid] | – | – | – | – | 0.048 µM | 0.306 µM | 0.052 µM | 0.138 µM | – | –
7 | CCO[C@@H](Cc1ccc(OCc2nc(-c3ccc(F)c(C)c3)oc2C)cc1CC)C(=O)O [Example 9, (S)-2-Ethoxy-3-{2-ethyl-4-[2-(4-fluoro-3-methyl-phenyl)-5-methyl-oxazol-4-ylmethoxy]-phenyl}-propionic acid] | 0.129 µM | 0.021 µM | 0.196 µM | 0.033 µM | – | – | – | – | – | –
8 | CN(CCOc1ccc(CC2SC(=O)NC2=O)cc1)c1ccccn1 (centres unmarked) [Rosiglitazone, reference compound] | – | – | – | – | – | – | – | – | inactive | inactive
9 | CCO[C@@H](Cc1c(C)cc(OCc2nc(-c3ccccc3)oc2C)cc1C)C(=O)O [Example 29, (S)-3-[2,6-Dimethyl-4-(5-methyl-2-phenyl-oxazol-4-ylmethoxy)-phenyl]-2-ethoxy-propionic acid] | 1.73 µM | 0.213 µM | 2.38 µM | 0.678 µM | – | – | – | – | – | –
10 | CCO[C@@H](Cc1ccc(OCc2nc(-c3ccc(F)c(C)c3)oc2C)cc1C)C(=O)O [Example 5, (S)-2-Ethoxy-3-{4-[2-(4-fluoro-3-methyl-phenyl)-5-methyl-oxazol-4-ylmethoxy]-2-methyl-phenyl}-propionic acid] | 0.146 µM | 0.038 µM | 0.155 µM | 0.124 µM | – | – | – | – | – | –

Reference: patent publication US7348349B2, “Oxazole derivatives” (Hoffmann-La Roche Inc., priority 2002, dated 2008)
